Results published in ChEMBL document CHEMBL3997763 (Medchemcomm, 2016).
The source made the active and inactive calls. The rule behind the calls is not given here.

How the values were obtained:
[1] = biological target: T1, 3-hydroxy-3-methylglutaryl-coenzyme A reductase (Homo sapiens) (UniProt P04035); assay: Inhibition of human HMG-CoA reductase catalytic domain at 10 uM using HMG-CoA as substrate in presence of NADPH by colorimetric method relative to control
T1 sequence (whole entry): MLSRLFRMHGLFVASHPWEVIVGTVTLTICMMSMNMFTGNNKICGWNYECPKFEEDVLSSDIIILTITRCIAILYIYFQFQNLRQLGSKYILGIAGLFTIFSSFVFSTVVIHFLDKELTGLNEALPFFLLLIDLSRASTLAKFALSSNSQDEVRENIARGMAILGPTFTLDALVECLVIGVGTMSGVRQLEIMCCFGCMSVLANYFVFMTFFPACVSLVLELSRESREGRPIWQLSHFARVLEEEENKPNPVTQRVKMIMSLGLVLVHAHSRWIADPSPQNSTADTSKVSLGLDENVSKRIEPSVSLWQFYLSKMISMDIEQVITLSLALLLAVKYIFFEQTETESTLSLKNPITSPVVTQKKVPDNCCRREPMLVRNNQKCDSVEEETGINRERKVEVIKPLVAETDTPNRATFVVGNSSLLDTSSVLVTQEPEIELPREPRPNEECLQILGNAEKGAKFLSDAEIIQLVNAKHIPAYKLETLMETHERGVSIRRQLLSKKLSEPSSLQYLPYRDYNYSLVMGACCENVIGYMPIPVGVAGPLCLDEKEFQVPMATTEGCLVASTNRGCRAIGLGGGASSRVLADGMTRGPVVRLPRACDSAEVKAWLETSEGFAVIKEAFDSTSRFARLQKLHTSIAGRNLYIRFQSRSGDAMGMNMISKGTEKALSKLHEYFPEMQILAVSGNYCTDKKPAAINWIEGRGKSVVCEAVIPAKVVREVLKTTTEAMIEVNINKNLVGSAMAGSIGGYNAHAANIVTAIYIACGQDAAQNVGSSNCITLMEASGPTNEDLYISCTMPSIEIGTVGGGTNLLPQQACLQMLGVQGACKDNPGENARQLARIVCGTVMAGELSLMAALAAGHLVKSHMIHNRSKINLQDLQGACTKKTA

[2] = biological target: T1, 3-hydroxy-3-methylglutaryl-coenzyme A reductase (Homo sapiens); assay: Inhibition of human HMG-CoA reductase catalytic domain at 1 uM using HMG-CoA as substrate in presence of NADPH by colorimetric method relative to control
[3] = biological target: T1, 3-hydroxy-3-methylglutaryl-coenzyme A reductase (Homo sapiens); assay: Inhibition of human HMG-CoA reductase catalytic domain at 5 uM using HMG-CoA as substrate in presence of NADPH by colorimetric method relative to control
[4] = biological target: T1, 3-hydroxy-3-methylglutaryl-coenzyme A reductase (Homo sapiens); assay: Inhibition of human HMG-CoA reductase catalytic domain at 20 uM using HMG-CoA as substrate in presence of NADPH by colorimetric method relative to control
[5] = biological target: T1, 3-hydroxy-3-methylglutaryl-coenzyme A reductase (Homo sapiens); assay: Inhibition of human HMG-CoA reductase catalytic domain at 50 uM using HMG-CoA as substrate in presence of NADPH by colorimetric method relative to control
[6] = biological target: T1, 3-hydroxy-3-methylglutaryl-coenzyme A reductase (Homo sapiens); assay: Inhibition of human HMG-CoA reductase catalytic domain at 100 uM using HMG-CoA as substrate in presence of NADPH by colorimetric method relative to control
Rattus norvegicus [7] = assay: Antihyperlipidemic activity in triton WR-1339 induced Charles Foster rat hyperlipidemia model assessed as inhibition of total cholesterol level in serum at 10 mg/kg, po administered simultaneously with triton WR-1339 after 18 hrs by enzymatic method relative to control; assay type: functional
Rattus norvegicus [8] = assay: Antihyperlipidemic activity in triton WR-1339 induced Charles Foster rat hyperlipidemia model assessed as inhibition of phospholipid level in serum at 10 mg/kg, po administered simultaneously with triton WR-1339 after 18 hrs by enzymatic method relative to control; assay type: functional
Rattus norvegicus [9] = assay: Antihyperlipidemic activity in triton WR-1339 induced Charles Foster rat hyperlipidemia model assessed as inhibition of triglyceride level in serum at 10 mg/kg, po administered simultaneously with triton WR-1339 after 18 hrs by enzymatic method relative to control; assay type: functional
Rattus norvegicus [10] = assay: Hypolipidemic activity in HFD-induced Charles Foster rat chronic hyperlipidemia model assessed as reduction in serum total cholesterol level at 10 mg/kg administered via oral gavage for 30 days simultaneously with high fat diet by enzymatic method relative to HFD treated vehicle; assay type: functional; details: 720 h
Rattus norvegicus [11] = assay: Hypolipidemic activity in HFD-induced Charles Foster rat chronic hyperlipidemia model assessed as reduction in serum triglyceride level at 10 mg/kg administered via oral gavage for 30 days simultaneously with high fat diet by enzymatic method relative to HFD treated vehicle; assay type: functional; details: 720 h
Rattus norvegicus [12] = assay: Hypolipidemic activity in HFD-induced Charles Foster rat chronic hyperlipidemia model assessed as reduction in serum AST level at 10 mg/kg administered via oral gavage for 30 days simultaneously with high fat diet by colorimetric method relative to HFD treated vehicle; assay type: functional; details: 720 h
Rattus norvegicus [13] = assay: Hypolipidemic activity in HFD-induced Charles Foster rat chronic hyperlipidemia model assessed as reduction in serum ALT level at 10 mg/kg administered via oral gavage for 30 days simultaneously with high fat diet by colorimetric method relative to HFD treated vehicle; assay type: functional; details: 720 h
Rattus norvegicus [14] = assay: Hypolipidemic activity in HFD-induced Charles Foster rat chronic hyperlipidemia model assessed as reduction in liver total cholesterol level at 10 mg/kg administered via oral gavage for 30 days simultaneously with high fat diet by enzymatic method relative to HFD treated vehicle; assay type: functional; details: 720 h
Rattus norvegicus [15] = assay: Hypolipidemic activity in HFD-induced Charles Foster rat chronic hyperlipidemia model assessed as reduction in liver triglyceride level at 10 mg/kg administered via oral gavage for 30 days simultaneously with high fat diet by enzymatic method relative to HFD treated vehicle; assay type: functional; details: 720 h
Rattus norvegicus [16] = assay: Hypolipidemic activity in HFD-induced Charles Foster rat assessed as reduction in serum VLDL-TC at 10 mg/kg administered as single dose via oral gavage for 30 days simultaneously with high fat diet; assay type: functional, organism-based
Rattus norvegicus [17] = assay: Hypolipidemic activity in HFD-induced Charles Foster rat assessed as reduction in serum VLDL-TG at 10 mg/kg administered as single dose via oral gavage for 30 days simultaneously with high fat diet; assay type: functional, organism-based
Rattus norvegicus [18] = assay: Hypolipidemic activity in HFD-induced Charles Foster rat assessed as reduction in serum LDL-TC at 10 mg/kg administered as single dose via oral gavage for 30 days simultaneously with high fat diet; assay type: functional, organism-based
Rattus norvegicus [19] = assay: Hypolipidemic activity in HFD-induced Charles Foster rat assessed as reduction in serum LDL-TG at 10 mg/kg administered as single dose via oral gavage for 30 days simultaneously with high fat diet; assay type: functional, organism-based
Rattus norvegicus [20] = assay: Hypolipidemic activity in HFD-induced Charles Foster rat assessed as increase in serum HDL-TC at 10 mg/kg administered as single dose via oral gavage for 30 days simultaneously with high fat diet; assay type: functional, organism-based
Rattus norvegicus [21] = assay: Hypolipidemic activity in HFD-induced Charles Foster rat assessed as increase in serum HDL-TG at 10 mg/kg administered as single dose via oral gavage for 30 days simultaneously with high fat diet; assay type: functional, organism-based
Rattus norvegicus [22] = assay: Hypolipidemic activity in HFD-induced Charles Foster rat assessed as increase in serum LCAT activity at 10 mg/kg administered as single dose via oral gavage for 30 days simultaneously with high fat diet by photometric method; assay type: functional, organism-based
Rattus norvegicus [23] = assay: Hypolipidemic activity in HFD-induced Charles Foster rat assessed as increase in human I125-LDL binding to rat liver plasma membrane at 10 mg/kg administered as single dose via oral gavage for 30 days simultaneously with high fat diet by minigamma counting; assay type: functional, organism-based
Rattus norvegicus [24] = assay: Hypolipidemic activity in HFD-induced Charles Foster rat assessed as inhibition of hepatic HMG-CoA reductase activity by measuring […] at 10 mg/kg administered as single dose via oral gavage for 30 days simultaneously with high fat diet by colorimetric method; assay type: functional, organism-based
Rattus norvegicus [25] = assay: Hypolipidemic activity in HFD-induced Charles Foster rat assessed as increase in lipolytic activity of LPL in liver at 10 mg/kg administered as single dose via oral gavage for 30 days simultaneously with high fat diet; assay type: functional, organism-based

In the case of `CC(C)c1c(C(=O)Nc2ccccc2)c(-c2ccccc2)c(-c2ccc(F)cc2)n1CC[C@@H](O)C[C@@H](O)CC(=O)O` [ATORVASTATIN], the inhibition [1] is reported as 60 to 63%, the inhibition [2] is reported as 20% and the inhibition [3] is reported as 35%. It also gave an inhibition [4] of 69%, an inhibition [5] of 76% and an inhibition [6] of 83%. The inhibition in vivo at 10 mg/kg (Rattus norvegicus [7]) was 36%, the inhibition in vivo at 10 mg/kg (Rattus norvegicus [8]) was 35% and the inhibition in vivo at 10 mg/kg (Rattus norvegicus [9]) was 35%. It also gave an inhibition in vivo at 10 mg/kg (Rattus norvegicus [10]) of 25%, an inhibition in vivo at 10 mg/kg (Rattus norvegicus [11]) of 26% and an inhibition in vivo at 10 mg/kg (Rattus norvegicus [12]) of 29%. For the same molecule, the inhibition in vivo at 10 mg/kg (Rattus norvegicus [13]) was 25%, the inhibition in vivo at 10 mg/kg (Rattus norvegicus [14]) was 28% and the inhibition in vivo at 10 mg/kg (Rattus norvegicus [15]) was 30%. The Activity (Rattus norvegicus [16]) was “Active”, the Activity (Rattus norvegicus [17]) was “Active” and the Activity (Rattus norvegicus [18]) was “Active”. For the same molecule, the Activity (Rattus norvegicus [19]) was “Active”, the Activity (Rattus norvegicus [20]) was “Active” and the Activity (Rattus norvegicus [21]) was “Active”. For the same molecule, the Activity (Rattus norvegicus [22]) was “Active”, the Activity (Rattus norvegicus [23]) was “Active” and the inhibition (Rattus norvegicus [24]) was “Active”. The Activity (Rattus norvegicus [25]) was “Active”.
